Assay results: patent US11497731B2, “β-lactamase inhibitor” (NATIONAL UNIVERSITY CORPORATION TOKAI NATIONAL HIGHER …, priority 2018, dated 2022)
Converted amounts (≈) assume the structure as drawn. Read-outs that look alike come from different tables or passages of the source.

Columns and labels:
IMP-1 = IMP-1 (Serratia marcescens, UniProt P52699); assay: Inhibition constant (Ki) measurement test, IMP-1; assay type: biochemical
Description: (§1) The inhibition constant (Ki) measurement test was performed in the following manner. The inhibition constant (Ki) was measured using various metallo-β-lactamases (final concentration: 10 nM). The imipenem decomposition activity (Δabs/min) at each point under the conditions of absorbance: 298 nm and temperature: 30° C. was measured by varying the concentration of imipenem as a substrate and the concentrations of test substances (compounds A to E) as inhibitors. Each measured value was fitted to the Lineweaver-Burk plot equation to calculate Ki.
(§2) The test was performed in the same manner as in Test Example 6, except that X2a, X2b, X2c, X2d, X3a, and X4 were used as test substances (inhibitors).

NDM-1 = NDM-1 (Klebsiella pneumoniae, UniProt C7C422); assay: Inhibition constant (Ki) measurement test, NDM-1; assay type: biochemical
NDM-1, sequence (C7C422 29-270, looked up, species assumed): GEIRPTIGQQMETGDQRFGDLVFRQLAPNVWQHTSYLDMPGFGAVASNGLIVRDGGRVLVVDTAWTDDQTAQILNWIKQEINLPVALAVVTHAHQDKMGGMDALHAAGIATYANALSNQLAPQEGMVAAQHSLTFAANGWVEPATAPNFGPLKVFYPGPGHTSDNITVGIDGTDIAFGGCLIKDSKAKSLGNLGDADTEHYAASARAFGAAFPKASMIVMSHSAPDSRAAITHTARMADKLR
Description: as §1, §2

VIM-2 = VIM-2 (Escherichia coli, UniProt Q5U7L7); assay: Inhibition constant (Ki) measurement test, VIM-2; assay type: biochemical
Description: as §1, §2

[1] = target: metallo-β-lactamase (IMP-1) (Serratia marcescens, UniProt P52699); assay: Enzyme activity measurement test (imipenem decomposition); assay type: biochemical
metallo-β-lactamase (IMP-1), sequence (P52699 19-246, looked up, species assumed): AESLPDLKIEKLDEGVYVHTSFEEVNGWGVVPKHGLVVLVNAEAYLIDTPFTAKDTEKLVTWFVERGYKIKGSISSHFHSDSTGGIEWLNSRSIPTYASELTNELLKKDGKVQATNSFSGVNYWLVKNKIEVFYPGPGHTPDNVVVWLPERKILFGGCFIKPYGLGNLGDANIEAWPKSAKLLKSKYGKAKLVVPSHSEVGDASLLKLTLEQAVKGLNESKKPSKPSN
Description: A metallo-β-lactamase (IMP-1) (final concentration: 10 nM), and imipenem (final concentration: 100 μM) as a substrate were used. The imipenem decomposition activity (Dabs/min) at each point under the conditions of absorbance: 298 nm and temperature: 30° C. was measured by varying the concentrations of test substances (compounds Nos. 9-7, 9-8, and 9-9) as inhibitors (0 μM, 10 μM, and 100 μM). The activity when no test substance was added was defined as 100%, and the relative activity value when each test substance was individually added was calculated.

[2] = test system: bacteria into which a plasmid encoding IMP-1 was introduced (pBCSK (+)/E. coli DH5a); assay: Drug susceptibility test (MIC), IMP-1-producing strain; assay type: cell-based; conditions: for Meropenem MIC IMP1-producing strain: MIC of meropenem with inhibitor 10 μg/mL; for MIC: Escherichia coli
[3] = test system: bacteria into which a plasmid encoding NDM-1 was introduced (pBCSK (+)/E. coli DH5a); assay: Drug susceptibility test (MIC), NDM-1-producing strain; assay type: cell-based; conditions: for Meropenem MIC NDM-1-producing strain: MIC of meropenem with inhibitor 10 μg/mL; for MIC: Escherichia coli
Description: (§3) Plates for drug susceptibility test measurement were prepared by using 96- or 384-well U-bottom plates, a Mueller-Hinton liquid medium, and antimicrobial drugs (ceftazidime (CAZ), imipenem (IPM), meropenem (MPM), doripenem (DPM), and biapenem (BPM)). A 1/2 antimicrobial drug dilution series was made up to well 11 of, for example, a 96-well U-bottom plate so that the leftmost well 1 of row A contained an antimicrobial drug at the maximum concentration, the antimicrobial drug concentration in well 2 to the right of well 1 was 1/2 of the maximum concentration, the antimicrobial drug concentration in well 3 to the right of well 2 was 1/4 of the maximum concentration, and so on. […] An antimicrobial drug dilution series was made in each of rows B and C in the same manner as in row A. Further, 10 μg/mL and 50 μg/mL of a test substance (compound A) were added to row B and row C, respectively (FIG. 1).
(§4) Bacteria into which a plasmid encoding a class B β-lactamase (metallo-β-lactamase (MBL): NDM-1, or VIM-2) was introduced (pBCSK (+)/E. coli DH5a) were used as test bacteria. The test bacteria were adjusted to 10^8 cfu/mL with a Mueller-Hinton medium. Further, the test bacteria were diluted 10-fold with a Mueller-Hinton medium (10^7 cfu/mL). 5 μl of the test bacteria was collected and inoculated into the plates for drug susceptibility test measurement. After overnight culture at 35° C., the growth of the test bacteria was visually checked. The concentration of the antimicrobial drug in a well containing the lowest concentration of the antimicrobial drug among the wells in which no growth of the test bacteria was confirmed was defined as the minimal inhibitory concentration value (FIG. 1).
(§5) The drug susceptibility test was performed in the same manner as in Test Example 1, except that compounds A to C and E to I were used as test substances.
(§6) The test was performed in the same manner as in Test Example 1, except that X2a, X2b, X2c, X2d, X3a, and X4 were used as test substances (inhibitors). The inhibitor concentration was 10 μg/mL.

[4] = test system: bacteria into which a plasmid encoding VIM-2 was introduced (pBCSK (+)/E. coli DH5a); assay: Drug susceptibility test (MIC), VIM-2-producing strain; assay type: cell-based; conditions: for Ceftazidime MIC VIM-2-producing strain: MIC of ceftazidime with inhibitor 10 μg/mL; for MIC: Escherichia coli
Description: as §3, §4, §5, §6

[5] = test system: β-lactamase-producing bacteria; assay: Drug susceptibility tests, summary statements over all strains; assay type: cell-based, E. coli; conditions: addition of the compound
Description: as §3, §4

β-lactamase = assay: Inhibition constant (Ki) tests, summary statements over all enzymes; assay type: biochemical
Description: as §1, §2

[6] = test system: bacteria (K. pneumoniae) in which a plasmid encoding NDM and VIM was introduced; assay: Mouse abdominal infection model, K. pneumoniae NDM and VIM strain; assay type: in vivo, mice; conditions: antimicrobial drug 2 mg/kg or 8 mg/kg, test substance 10 mg/kg
Description: The laboratory strain grown overnight on a Mueller-Hinton agar medium was scraped with a sterile swab, suspended in physiological saline, adjusted to 2-5×10^8 CFU/mL, and mixed with an equal amount of a 10% mucin solution (1-2.5×10^8 CFU/mL) to prepare a bacterial liquid. Mice (Crl:CD1(ICR), male, 4 weeks old (Charles River Laboratories Japan, Inc.)) acclimated for 4 days after arrival were weighed, and then infected by intraperitoneal administration of 250 μL of the prepared bacterial liquid per mouse. An antimicrobial drug (meropenem trihydrate (WAKO 137-15674)) and the test substance were dissolved in physiological saline. A first intraperitoneal administration of the antimicrobial drug (0.2 mg/kg) and/or the test substance (100 mg/kg) was performed 1 hour after infection. A second administration was performed 3 hours after infection, in the same manner as the first administration (up to this point, day 0).
The animal study was performed in the same manner as in Test Example 12, except that in addition to a strain of Escherichia coli in which a plasmid encoding a class B lactamase (IMP-1) was introduced, bacteria (K. pneumoniae) in which a plasmid encoding NDM and VIM was introduced were used as a laboratory strain, compound I was administered as a test substance, […], and the dosage of the test substance was 10 mg/kg. […]

[7] = test system: Empty vector (no class B lactamase produced), pBCSK (+)/E. coli DH5a; assay: Drug susceptibility test (MIC), empty vector strain; assay type: cell-based; conditions: Escherichia coli
[8] = imipenem substrate, enzyme 10 nM, 30° C., Lineweaver-Burk, read-out: Inhibition constant Ki IMP-1
[9] = imipenem substrate, enzyme 10 nM, 30° C., Lineweaver-Burk, read-out: Inhibition constant Ki NDM-1
[10] = imipenem substrate, enzyme 10 nM, 30° C., Lineweaver-Burk, read-out: Inhibition constant Ki VIM-2
[11] = Test Example 11, same manner as Test Example 6, read-out: Enzymatic Inhibition Effect Ki IMP-1
[12] = Test Example 11, same manner as Test Example 6, read-out: Enzymatic Inhibition Effect Ki NDM-1
[13] = Test Example 11, same manner as Test Example 6, read-out: Enzymatic Inhibition Effect Ki VIM-2
[14] = meropenem alone, no test substance added, Table 2

IMP-1, sequence (P52699 19-246, looked up, species assumed): as above

Compound	Ki (IMP-1; [8])	Ki (NDM-1; [9])	Ki (VIM-2; [10])	Meropenem MIC IMP1-producing strain [2]	Meropenem MIC NDM-1-producing strain [3]	Ceftazidime MIC VIM-2-producing strain [4]	Ki (IMP-1; [11])	Ki (NDM-1; [12])	Ki (VIM-2; [13])	effect on MICs of the antimicrobial drugs (statement on Tables 1, 2, 4) [5]	β-lactamase activity inhibition (statement on Tables 2, 5) (β-lactamase)	other results
NS(=O)(=O)c1c(C2CCCC2)oc(C2CCCC2)c1C(=O)O [Compound H]	1270 nM	180 nM	760 nM	–	–	–	–	–	–	–	–	–
Cc1oc(C)c(S(=O)(=O)N2CC3CCCC3C2)c1C(=O)O (centres unmarked) [9-7]	–	–	–	–	–	–	–	–	–	–	–	β-lactamase activity inhibition (statement on Table 3) [1]: inhibits β-lactamase activity
CCc1ccccc1CNS(=O)(=O)c1c(C)oc(C)c1C(=O)O [9-9]	–	–	–	–	–	–	–	–	–	–	–	β-lactamase activity inhibition (statement on Table 3) [1]: inhibits β-lactamase activity
NS(=O)(=O)c1sccc1C(=O)O [B]	34100 nM	7680 nM	15500 nM	–	–	–	–	–	–	–	–	–
CCc1c(S(N)(=O)=O)c(C(=O)O)c(C)n1C [Compound X2b]	–	–	–	0.031 µg/mL	0.0625 µg/mL	1 µg/mL	980 nM	1730 nM	100 nM	decreases the MICs	inhibits β-lactamase activity	–
CCc1oc(CC)c(S(N)(=O)=O)c1C(=O)O [Compound F]	300 nM	920 nM	1010 nM	–	–	–	–	–	–	–	–	–
CCc1c(C(=O)O)c(S(N)(=O)=O)c(CC)n1N [Compound X3a]	–	–	–	0.031 µg/mL	0.5 µg/mL	4 µg/mL	21400 nM	22100 nM	1970 nM	decreases the MICs	inhibits β-lactamase activity	–
Cc1oc(C)c(S(=O)(=O)N2CCC(C)(C)C2)c1C(=O)O [9-8]	–	–	–	–	–	–	–	–	–	–	–	β-lactamase activity inhibition (statement on Table 3) [1]: inhibits β-lactamase activity
CCCc1oc(CCC)c(S(N)(=O)=O)c1C(=O)O [Compound G]	380 nM	290 nM	460 nM	–	–	–	–	–	–	–	–	–
Cc1c(C(=O)O)c(S(N)(=O)=O)c(C)n1-c1ccccc1 [Compound D]	7510 nM	10200 nM	20800 nM	–	–	–	–	–	–	–	–	–
CCc1c(C(=O)O)c(S(N)(=O)=O)c(C(C)C)n1C [Compound X4]	–	–	–	0.031 µg/mL	0.5 µg/mL	1 µg/mL	900 nM	4300 nM	17 nM	decreases the MICs	inhibits β-lactamase activity	–
CCc1c(C(=O)O)c(S(N)(=O)=O)c(C)n1C [Compound X2a]	–	–	–	0.031 µg/mL	0.0625 µg/mL	1 µg/mL	1770 nM	1830 nM	23 nM	decreases the MICs	inhibits β-lactamase activity	–
CCc1c(C(=O)O)c(S(N)(=O)=O)c(-c2ccccc2)n1C [Compound X2c]	–	–	–	0.031 µg/mL	0.5 µg/mL	1 µg/mL	1240 nM	1500 nM	19 nM	decreases the MICs	inhibits β-lactamase activity	–
NS(=O)(=O)c1sc(Cl)cc1C(=O)O [C]	19100 nM	19300 nM	2290 nM	–	–	–	–	–	–	–	–	–
Cc1c(C(=O)O)c(S(N)(=O)=O)c(C)n1C [Compound E]	1230 nM	9080 nM	420 nM	–	–	–	–	–	–	–	–	–
CCc1c(S(N)(=O)=O)c(C(=O)O)c(-c2ccccc2)n1C [Compound X2d]	–	–	–	0.031 µg/mL	0.0625 µg/mL	1 µg/mL	110 nM	80 nM	33 nM	decreases the MICs	inhibits β-lactamase activity	survival rate (FIG. 13) [6]: notably improved
C[C@@H](O)[C@H]1C(=O)N2C(C(=O)O)=C(S[C@@H]3CN[C@H](C(=O)N(C)C)C3)[C@H](C)[C@H]12 [MPM, meropenem, reference compound]	–	–	–	–	–	–	–	–	–	–	–	MIC ([2]; read-out: MIC MPM): 0.5 µg/mL (≈ 1.3 µM); MIC ([2]; read-out: Meropenem MIC IMP1-producing strain, No inhibitor): 2 µg/mL (≈ 5.22 µM); MIC IMP-1 meropenem, None [2, 14]: 1 mg I^−1; MIC ([3]; read-out: Meropenem MIC NDM-1-producing strain, No inhibitor): 4 µg/mL (≈ 10.4 µM); MIC NDM-1 meropenem, None [3, 14]: 64 mg I^−1; MIC ([4]; read-out: MIC MPM): 0.063 µg/mL (≈ 0.164 µM); MIC ([7]; read-out: MIC MPM): 0.016 µg/mL (≈ 0.0417 µM)
CC(C)(O/N=C(\C(=O)N[C@@H]1C(=O)N2C(C(=O)[O-])=C(C[n+]3ccccc3)CS[C@H]12)c1csc(N)n1)C(=O)O [CAZ, ceftazidime, reference compound]	–	–	–	–	–	–	–	–	–	–	–	MIC ([2]; read-out: MIC CAZ): 256 µg/mL (≈ 468 µM); MIC ([3]; read-out: MIC CAZ): > 1020 µg/mL; MIC ([4]; read-out: Ceftazidime MIC VIM-2-producing strain, No inhibitor): 16 µg/mL (≈ 29.3 µM); MIC ([4]; read-out: MIC CAZ): 4 µg/mL (≈ 7.32 µM); MIC VIM-2 ceftazidime, None ([4]; ceftazidime alone, no test substance added, Table 2): 16 mg I^−1; MIC ([7]; read-out: MIC CAZ): 0.25 µg/mL (≈ 0.457 µM)
